Laboratory results published in US11312719B2, “9-substituted amino triazolo quinazoline derivatives as adenosine receptor antagonists, pharmaceutical compositions and their use” (Merck Sharp & Dohme Corp., priority 2018, dated 2022).

Tests used:
human A2A receptors = human A2A receptors (Homo sapiens (Human), UniProt P29274); experiment: A2A antagonism in cAMP cell-based assay (LANCE cAMP, HEK293); conditions: HEK293 cells expressing human A2A receptor
Procedure: (§1) Measurement of A2A and A2B Antagonism in cAMP Cell-Based Assay
(§2) The ability of compounds to antagonize human A2A and A2B adenosine receptors was determined using a kit to measure changes in intracellular cyclic AMP levels (LANCE cAMP 384 Kit, Perkin Elmer, Cat. No. AD0264). HEK293 cells recombinantly expressing either human A2A or A2B receptors, previously frozen in Recovery Medium (Life Technologies, Cat. No. 12648-010) were thawed and diluted into stimulation buffer (HBSS (Hyclone SH 30268.01), 5 mM HEPES (Gibco 15630-106), 200 nM rolipram (Tocris, Cat. No. 0905), and 1.5% (V/v) BSA stabilizer (kit component). The cell suspension was centrifuged at 200×g for 10 min and then resuspended in stimulation buffer, supplemented with a 1:10 000 dilution of Alexa Fluor 647 anti-cAMP antibody, to a density of 6.0×10^5 cells/mL. A Labcyte Echo 550 acoustic dispenser was used to transfer up to 25 nL of test compound dissolved in DMSO into the wells of a dry Optiplate-384 plate (Perkin Elmer, Cat. No. 6008289). All subsequent liquid additions were performed using a multichannel pipettor. Next, 5 μL of the cell suspension was added to the wells of the Optiplate-384 and incubated for 30 min. at 37° C. and 5% CO2 in a humidified environment. After this time 5 μL of either 300 nM or 600 nM adenosine (Sigma Cat. No. A9251) for A2A and A2B respectively was added and incubated for 30 minutes at 37° C. and 5% CO2 in a humidified environment. At this time detection mix was prepared by combining the LANCE Eu-W8044 labeled streptavidin and Biotin-cAMP in detection buffer according to the manufacturers protocol. 10 μL of the detection mix was added to each well of the Optiplate-384 which was covered with a plate seal and incubated under ambient conditions for 2 hours prior to reading the plate using an Envision (Perkin Elmer, Waltham, Mass.) multimode plate reader. Data was normalized by defining minimal effect as stimulation in the presence of 0.25% (v/v) DMSO and maximal effect as stimulation in the presence of 1 μM ZM241385 (Cayman, Cat. No. 1036). Curve fitting of the percent effect data versus the log of compound concentration used a 4-parameter concentration response curve fitting algorithm to calculate IC50 values. Compound concentrations tested were 10,000, 3,333, 1,111, 370.4, 123.4, 41.2, 13.7, 4.6, 1.5 and 0.5 nM with 0.25% residual DMSO.

human A2B receptors = human A2B receptors (Homo sapiens (Human), UniProt P29275); experiment: A2B antagonism in cAMP cell-based assay (LANCE cAMP, HEK293); conditions: HEK293 cells expressing human A2B receptor
Chain of human A2B receptors (P29275 whole entry): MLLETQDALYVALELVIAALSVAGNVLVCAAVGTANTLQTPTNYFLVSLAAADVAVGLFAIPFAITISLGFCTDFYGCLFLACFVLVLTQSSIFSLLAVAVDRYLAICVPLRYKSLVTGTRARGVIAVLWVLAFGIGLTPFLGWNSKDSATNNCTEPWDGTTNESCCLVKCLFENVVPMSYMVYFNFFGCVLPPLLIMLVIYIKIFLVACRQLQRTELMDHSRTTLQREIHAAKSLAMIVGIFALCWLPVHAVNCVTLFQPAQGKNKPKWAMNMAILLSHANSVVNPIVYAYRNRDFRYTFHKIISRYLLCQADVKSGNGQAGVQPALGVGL
Procedure: as §1, §2

Chain of human A2A receptors (P29274 whole entry): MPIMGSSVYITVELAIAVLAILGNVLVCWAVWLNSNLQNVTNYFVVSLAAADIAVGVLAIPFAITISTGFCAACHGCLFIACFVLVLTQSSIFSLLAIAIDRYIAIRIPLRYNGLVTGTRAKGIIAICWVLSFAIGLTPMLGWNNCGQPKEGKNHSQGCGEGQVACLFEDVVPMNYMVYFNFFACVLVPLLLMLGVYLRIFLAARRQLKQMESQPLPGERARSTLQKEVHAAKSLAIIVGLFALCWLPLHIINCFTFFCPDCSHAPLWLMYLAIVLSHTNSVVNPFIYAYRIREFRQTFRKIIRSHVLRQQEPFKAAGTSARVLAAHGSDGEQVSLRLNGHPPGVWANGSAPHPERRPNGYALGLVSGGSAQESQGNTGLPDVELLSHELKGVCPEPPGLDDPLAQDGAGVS

Row | Structure (SMILES) | IC50 (human A2A receptors) [µM] | IC50 (human A2B receptors) [µM] | A2B cAMP % Inh. @10000 nM (human A2B receptors; at 10000 nM) [% Inh.]
1 | Cc1nn(CC(C)(C)O)cc1N1CC(C)CC(c2nc3c4cc(F)cc(F)c4nc(N)n3n2)C1 (single isomer, unassigned) [Example 167, 1-(4-((3R,5S or 3S,5R)-3-(5-amino-7,9-difluoro-[1,2,4]triazolo[1,5-c]quinazolin-2-yl)-5-methylpiperidin-1-yl)-3-methyl-1H-pyrazol-1-yl)-2-methylpropan-2-ol] | 0.0006 | 0.046 | –
2 | Cc1nn(CC(C)(C)O)cc1N1CC(C)CC(c2nc3c4cc(F)cc(F)c4nc(N)n3n2)C1 (single isomer, unassigned) [Example 168, 1-(4-((3S,5R or 3R,5S)-3-(5-amino-7,9-difluoro-[1,2,4]triazolo[1,5-c]quinazolin-2-yl)-5-methylpiperidin-1-yl)-3-methyl-1H-pyrazol-1-yl)-2-methylpropan-2-ol] | 0.0239 | 4.72 | –
3 | COc1cc2nc(N)n3nc(C4CC(C)CN(c5cn(C(C)(C)CO)nc5C)C4)nc3c2cc1F (single isomer, unassigned) [Example 169, 2-(4-((3S,5S or 3S,5R)-3-(5-amino-9-fluoro-8-methoxy-[1,2,4]triazolo[1,5-c]quinazolin-2-yl)-5-methylpiperidin-1-yl)-3-methyl-1H-pyrazol-1-yl)-2-methylpropan-1-ol] | 0.0965 | 3.38 | –
4 | COc1cc2nc(N)n3nc(C4CC(C)CN(c5cn(C(C)(C)CO)nc5C)C4)nc3c2cc1F (single isomer, unassigned) [Example 170, 2-(4-((3S,5R or 3R,5S)-3-(5-amino-9-fluoro-8-methoxy-[1,2,4]triazolo[1,5-c]quinazolin-2-yl)-5-methylpiperidin-1-yl)-3-methyl-1H-pyrazol-1-yl)-2-methylpropan-1-ol] | 0.0008 | 0.0141 | –
5 | COc1cc2nc(N)n3nc(C4CC(C)CN(c5cnn(C(C)(C)CO)c5)C4)nc3c2cc1F (single isomer, unassigned) [Example 171, 2-(4-((3R,5S or 3S,5R)-3-(5-amino-9-fluoro-8-methoxy-[1,2,4]triazolo[1,5-c]quinazolin-2-yl)-5-methylpiperidin-1-yl)-1H-pyrazol-1-yl)-2-methylpropan-1-ol] | 0.0012 | 0.0113 | –
6 | COc1cc2nc(N)n3nc(C4CC(C)CN(c5cnn(C(C)(C)CO)c5)C4)nc3c2cc1F (single isomer, unassigned) [Example 172, 2-(4-((3S,5R or 3R,5S)-3-(5-amino-9-fluoro-8-methoxy-[1,2,4]triazolo[1,5-c]quinazolin-2-yl)-5-methylpiperidin-1-yl)-1H-pyrazol-1-yl)-2-methylpropan-1-ol] | 0.0605 | – | 14
7 | COc1cc(F)cc2c1nc(N)n1nc(C3CC(C)CN(c4cnn(CC(C)(C)O)c4C)C3)nc21 (single isomer, unassigned) [Example 173, 1-(4-((3R,5S or 3S,5R)-3-(5-amino-9-fluoro-7-methoxy-[1,2,4]triazolo[1,5-c]quinazolin-2-yl)-5-methylpiperidin-1-yl)-5-methyl-1H-pyrazol-1-yl)-2-methylpropan-2-ol] | 0.0207 | 2.02 | –
8 | COc1cc(F)cc2c1nc(N)n1nc(C3CC(C)CN(c4cnn(CC(C)(C)O)c4C)C3)nc21 (single isomer, unassigned) [Example 174, 1-(4-((3S,5R or 3R,5S)-3-(5-amino-9-fluoro-7-methoxy-[1,2,4]triazolo[1,5-c]quinazolin-2-yl)-5-methylpiperidin-1-yl)-5-methyl-1H-pyrazol-1-yl)-2-methylpropan-2-ol] | 0.0006 | 0.0307 | –
9 | COc1cc(F)cc2c1nc(N)n1nc(C3CC(C)CN(c4cn(C(C)(C)CO)nc4C)C3)nc21 (single isomer, unassigned) [Example 175, 2-(4-((3R,5S or 3S,5R)-3-(5-amino-9-fluoro-7-methoxy-[1,2,4]triazolo[1,5-c]quinazolin-2-yl)-5-methylpiperidin-1-yl)-3-methyl-1H-pyrazol-1-yl)-2-methylpropan-1-ol] | 0.0302 | 2 | –
10 | COc1cc(F)cc2c1nc(N)n1nc(C3CC(C)CN(c4cn(C(C)(C)CO)nc4C)C3)nc21 (single isomer, unassigned) [Example 176, 2-(4-((3S,5R or 3R,5S)-3-(5-amino-9-fluoro-7-methoxy-[1,2,4]triazolo[1,5-c]quinazolin-2-yl)-5-methylpiperidin-1-yl)-3-methyl-1H-pyrazol-1-yl)-2-methylpropan-1-ol] | 0.0009 | 0.0102 | –
11 | Cc1nn(C(C)(C)CO)cc1N1CC(C)CC(c2nc3c4cc(F)cc(F)c4nc(N)n3n2)C1 (single isomer, unassigned) [Example 177, 2-(4-((3R,5S or 3S,5R)-3-(5-amino-7,9-difluoro-[1,2,4]triazolo[1,5-c]quinazolin-2-yl)-5-methylpiperidin-1-yl)-3-methyl-1H-pyrazol-1-yl)-2-methylpropan-1-ol] | 0.154 | 3.96 | –
12 | Cc1nn(C(C)(C)CO)cc1N1CC(C)CC(c2nc3c4cc(F)cc(F)c4nc(N)n3n2)C1 (single isomer, unassigned) [Example 178, 2-(4-((3S,5R or 3R,5S)-3-(5-amino-7,9-difluoro-[1,2,4]triazolo[1,5-c]quinazolin-2-yl)-5-methylpiperidin-1-yl)-3-methyl-1H-pyrazol-1-yl)-2-methylpropan-1-ol] | 0.0006 | 0.0115 | –
13 | CC1CC(c2nc3c4cc(F)cc(F)c4nc(N)n3n2)CN(c2cnn(C(C)(C)CO)c2)C1 (single isomer, unassigned) [Example 179] | 0.004 | 0.335 | –
14 | CC1CC(c2nc3c4cc(F)cc(F)c4nc(N)n3n2)CN(c2cnn(C(C)(C)CO)c2)C1 (single isomer, unassigned) [Example 180, 2-(4-((3R,5R or 3S,5S)-3-(5-amino-7,9-difluoro-[1,2,4]triazolo[1,5-c]quinazolin-2-yl)-5-methylpiperidin-1-yl)-1H-pyrazol-1-yl)-2-methylpropan-1-ol] | 0.054 | 5.34 | –
15 | CC1CC(c2nc3c4cc(F)cc(F)c4nc(N)n3n2)CN(c2cnn(CC(C)(C)O)c2)C1 (single isomer, unassigned) [Example 181, 1-(4-((3S,5S or 3R,5R)-3-(5-amino-7,9-difluoro-[1,2,4]triazolo[1,5-c]quinazolin-2-yl)-5-methylpiperidin-1-yl)-1H-pyrazol-1-yl)-2-methylpropan-2-ol] | 0.016 | 5.1 | –
16 | CC1CC(c2nc3c4cc(F)cc(F)c4nc(N)n3n2)CN(c2cnn(CC(C)(C)O)c2)C1 (single isomer, unassigned) [Example 182, 1-(4-((3R,5R or 3S,5S)-3-(5-amino-7,9-difluoro-[1,2,4]triazolo[1,5-c]quinazolin-2-yl)-5-methylpiperidin-1-yl)-1H-pyrazol-1-yl)-2-methylpropan-2-ol] | 0.362 | > 10 | –
17 | CCC(C)(O)Cn1cc(N2CCC[C@@H](c3nc4c5cc(F)c(OC)cc5nc(N)n4n3)C2)cn1 (single isomer, unassigned) [Example 183, (R or S)-1-(4-((R)-3-(5-amino-9-fluoro-8-methoxy-[1,2,4]triazolo[1,5-c]quinazolin-2-yl)piperidin-1-yl)-1H-pyrazol-1-yl)-2-methylbutan-2-ol] | 0.002 | 0.0906 | –
